Laboratory results: patent US8445492B2, “Method for inhibiting growth of cancer cells and cell telomere and diseases of cell proliferation by using heteroannelated anthraquinone derivative compounds” (National Defense Medical Center, priority 2008, dated 2013)
Where two headings read alike, the source gives them in different places.

Tests used:
786-0 = experiment: NCI DTP in-vitro dose response, Renal Cancer; type: cell-based
A498 = experiment: NCI DTP in-vitro dose response, Renal Cancer; type: cell-based
ACHN = experiment: NCI DTP in-vitro dose response, Renal Cancer; type: cell-based
CAKI-1 = experiment: NCI DTP in-vitro dose response, Renal Cancer; type: cell-based
SN12C = experiment: NCI DTP in-vitro dose response, Renal Cancer; type: cell-based
TK-10 = experiment: NCI DTP in-vitro dose response, Renal Cancer; type: cell-based
UO-31 = experiment: NCI DTP in-vitro dose response, Renal Cancer; type: cell-based
LOX IMVI = experiment: NCI DTP in-vitro dose response, Melanoma; type: cell-based
MALME-3M = experiment: NCI DTP in-vitro dose response, Melanoma; type: cell-based
M14 = experiment: NCI DTP in-vitro dose response, Melanoma; type: cell-based
SK-MEL-2 = experiment: NCI DTP in-vitro dose response, Melanoma; type: cell-based
SK-MEL-28 = experiment: NCI DTP in-vitro dose response, Melanoma; type: cell-based
SK-MEL-5 = experiment: NCI DTP in-vitro dose response, Melanoma; type: cell-based
UACC-257 = experiment: NCI DTP in-vitro dose response, Melanoma; type: cell-based
UACC-62 = experiment: NCI DTP in-vitro dose response, Melanoma; type: cell-based

O=C1c2ccccc2C(=O)c2c1ccc1nccnc21 [TABLE 5-8]
TGI (PC-3; PC-3): >1.00E−4 | Percent Growth (PC-3; PC-3, Log10 Concentration −4.0): 50% | Percent Growth (PC-3; PC-3, Log10 Concentration −5.0): 50% | Percent Growth (PC-3; PC-3, Log10 Concentration −6.0): 69% | Percent Growth (PC-3; PC-3, Log10 Concentration −7.0): 92% | Percent Growth (PC-3; PC-3, Log10 Concentration −8.0): 101% | CC50 (PC-3; read-out: LC50, PC-3): > 100 µM | GI50 (DU-145; DU-145): 11.4 µM | TGI (DU-145; DU-145): 3.43E−5 | Percent Growth (DU-145; DU-145, Log10 Concentration −4.0): −49% | Percent Growth (DU-145; DU-145, Log10 Concentration −5.0): 56% | Percent Growth (DU-145; DU-145, Log10 Concentration −6.0): 96% | Percent Growth (DU-145; DU-145, Log10 Concentration −7.0): 95% | Percent Growth (DU-145; DU-145, Log10 Concentration −8.0): 102% | CC50 (DU-145; read-out: LC50, DU-145): > 100 µM

CCc1nc2ccc3c(c2[nH]1)C(=O)c1ccccc1C3=O [TABLE 4-7]
CC50 (786-0): > 100 µM | TGI (786-0): >1.00E−4 | Percent Growth (786-0; Log10 Concentration −4.0): 38% | Percent Growth (786-0; Log10 Concentration −5.0): 68% | Percent Growth (786-0; Log10 Concentration −6.0): 95% | Percent Growth (786-0; Log10 Concentration −7.0): 102% | Percent Growth (786-0; Log10 Concentration −8.0): 104% | GI50 (786-0; read-out: GI50): 40.2 µM | CC50 (A498): > 100 µM | TGI (A498): 4.27E−5 | Percent Growth (A498; Log10 Concentration −4.0): −20% | Percent Growth (A498; Log10 Concentration −5.0): 34% | Percent Growth (A498; Log10 Concentration −6.0): 74% | Percent Growth (A498; Log10 Concentration −7.0): 97% | Percent Growth (A498; Log10 Concentration −8.0): 94% | GI50 (A498; read-out: GI50): 3.89 µM | CC50 (ACHN): > 100 µM | TGI (ACHN): 5.46E−5 | Percent Growth (ACHN; Log10 Concentration −4.0): −5% | Percent Growth (ACHN; Log10 Concentration −5.0): 14% | Percent Growth (ACHN; Log10 Concentration −6.0): 62% | Percent Growth (ACHN; Log10 Concentration −7.0): 85% | Percent Growth (ACHN; Log10 Concentration −8.0): 94% | GI50 (ACHN; read-out: GI50): 1.77 µM | CC50 (CAKI-1): > 100 µM | TGI (CAKI-1): >1.00E−4 | Percent Growth (CAKI-1; Log10 Concentration −4.0): 9% | Percent Growth (CAKI-1; Log10 Concentration −5.0): 20% | Percent Growth (CAKI-1; Log10 Concentration −6.0): 76% | Percent Growth (CAKI-1; Log10 Concentration −7.0): 91% | Percent Growth (CAKI-1; Log10 Concentration −8.0): 97% | GI50 (CAKI-1; read-out: GI50): 2.9 µM | CC50 (SN12C): > 100 µM | TGI (SN12C): >1.00E−4 | Percent Growth (SN12C; Log10 Concentration −4.0): 18% | Percent Growth (SN12C; Log10 Concentration −5.0): 46% | Percent Growth (SN12C; Log10 Concentration −6.0): 74% | Percent Growth (SN12C; Log10 Concentration −7.0): 80% | Percent Growth (SN12C; Log10 Concentration −8.0): 74% | GI50 (SN12C; read-out: GI50): 7.05 µM | CC50 (TK-10): > 100 µM | TGI (TK-10): >1.00E−4 | Percent Growth (TK-10; Log10 Concentration −4.0): 3% | Percent Growth (TK-10; Log10 Concentration −5.0): 39% | Percent Growth (TK-10; Log10 Concentration −6.0): 75% | Percent Growth (TK-10; Log10 Concentration −7.0): 113% | Percent Growth (TK-10; Log10 Concentration −8.0): 95% | GI50 (TK-10; read-out: GI50): 4.88 µM | CC50 (UO-31): > 100 µM | TGI (UO-31): >1.00E−4 | Percent Growth (UO-31; Log10 Concentration −5.0): 15% | Percent Growth (UO-31; Log10 Concentration −6.0): 67% | Percent Growth (UO-31; Log10 Concentration −7.0): 83% | Percent Growth (UO-31; Log10 Concentration −8.0): 88% | GI50 (UO-31; read-out: GI50): 2.12 µM

O=C1c2ccccc2C(=O)c2c1ccc1nccnc21 [TABLE 5-5]
CC50 (LOX IMVI): > 100 µM | TGI (LOX IMVI): 3.89E−5 | Percent Growth (LOX IMVI; Log10 Concentration −4.0): −22% | Percent Growth (LOX IMVI; Log10 Concentration −5.0): 31% | Percent Growth (LOX IMVI; Log10 Concentration −6.0): 81% | Percent Growth (LOX IMVI; Log10 Concentration −7.0): 85% | Percent Growth (LOX IMVI; Log10 Concentration −8.0): 90% | GI50 (LOX IMVI; read-out: GI50): 4.2 µM | CC50 (MALME-3M): 70.8 µM | TGI (MALME-3M): 2.07E−5 | Percent Growth (MALME-3M; Log10 Concentration −4.0): −64% | Percent Growth (MALME-3M; Log10 Concentration −5.0): 30% | Percent Growth (MALME-3M; Log10 Concentration −6.0): 88% | Percent Growth (MALME-3M; Log10 Concentration −7.0): 91% | Percent Growth (MALME-3M; Log10 Concentration −8.0): 97% | GI50 (MALME-3M; read-out: GI50): 4.48 µM | CC50 (M14): > 100 µM | TGI (M14): >1.00E−4 | Percent Growth (M14; Log10 Concentration −5.0): 34% | Percent Growth (M14; Log10 Concentration −6.0): 89% | Percent Growth (M14; Log10 Concentration −7.0): 91% | Percent Growth (M14; Log10 Concentration −8.0): 95% | GI50 (M14; read-out: GI50): 5.14 µM | CC50 (SK-MEL-2): > 100 µM | TGI (SK-MEL-2): 5.59E−5 | Percent Growth (SK-MEL-2; Log10 Concentration −4.0): −20% | Percent Growth (SK-MEL-2; Log10 Concentration −5.0): 58% | Percent Growth (SK-MEL-2; Log10 Concentration −6.0): 102% | Percent Growth (SK-MEL-2; Log10 Concentration −7.0): 85% | Percent Growth (SK-MEL-2; Log10 Concentration −8.0): 97% | GI50 (SK-MEL-2; read-out: GI50): 12.7 µM | CC50 (SK-MEL-28): > 100 µM | TGI (SK-MEL-28): 9.11E−5 | Percent Growth (SK-MEL-28; Log10 Concentration −4.0): −3% | Percent Growth (SK-MEL-28; Log10 Concentration −5.0): 75% | Percent Growth (SK-MEL-28; Log10 Concentration −6.0): 104% | Percent Growth (SK-MEL-28; Log10 Concentration −7.0): 101% | Percent Growth (SK-MEL-28; Log10 Concentration −8.0): 100% | GI50 (SK-MEL-28; read-out: GI50): 21 µM | CC50 (SK-MEL-5): 44.4 µM | TGI (SK-MEL-5): 1.71E−5 | Percent Growth (SK-MEL-5; Log10 Concentration −4.0): −92% | Percent Growth (SK-MEL-5; Log10 Concentration −5.0): 28% | Percent Growth (SK-MEL-5; Log10 Concentration −6.0): 82% | Percent Growth (SK-MEL-5; Log10 Concentration −7.0): 90% | Percent Growth (SK-MEL-5; Log10 Concentration −8.0): 90% | GI50 (SK-MEL-5; read-out: GI50): 3.93 µM | CC50 (UACC-257): > 100 µM | TGI (UACC-257): 6.83E−5 | Percent Growth (UACC-257; Log10 Concentration −4.0): −11% | Percent Growth (UACC-257; Log10 Concentration −5.0): 58% | Percent Growth (UACC-257; Log10 Concentration −6.0): 99% | Percent Growth (UACC-257; Log10 Concentration −7.0): 88% | Percent Growth (UACC-257; Log10 Concentration −8.0): 95% | GI50 (UACC-257; read-out: GI50): 13 µM | CC50 (UACC-62): > 100 µM | TGI (UACC-62): 5.61E−5 | Percent Growth (UACC-62; Log10 Concentration −4.0): −20% | Percent Growth (UACC-62; Log10 Concentration −5.0): 60% | Percent Growth (UACC-62; Log10 Concentration −6.0): 87% | Percent Growth (UACC-62; Log10 Concentration −7.0): 84% | Percent Growth (UACC-62; Log10 Concentration −8.0): 92% | GI50 (UACC-62; read-out: GI50): 13.3 µM
